# According to patent publication US10604555B2, “GIP derivatives and uses thereof” (priority 2018, dated 2020):
# *1 amine or outer side, *2 acyl side, *3 side chain or, on linkers, in order; H or OH if unused. Where a SMILES comes first, the peptide text is derived from it. Side-chain parts run from the residue outwards. [ ]: non-standard residue; d: D form. The star is where a group is joined. C18 diacid = O=C(O)CCCCCCCCCCCCCCCCC(=O)*; γGlu = O=C(O)[C@H](CCC(=O)[*:2])N[*:1]; Nle = CCCC[C@H](N)C(=O)O; Aib = CC(C)(N)C(=O)O
# Molecular target: T1, human GIP receptor (Homo sapiens, UniProt P48546)
# T1 construct: expressed in transfected cells; host or cells: BHK (parent line BHKTS13), BHK CRE luc2P hGIPR clone #5
# T1 sequence (P48546 22-466): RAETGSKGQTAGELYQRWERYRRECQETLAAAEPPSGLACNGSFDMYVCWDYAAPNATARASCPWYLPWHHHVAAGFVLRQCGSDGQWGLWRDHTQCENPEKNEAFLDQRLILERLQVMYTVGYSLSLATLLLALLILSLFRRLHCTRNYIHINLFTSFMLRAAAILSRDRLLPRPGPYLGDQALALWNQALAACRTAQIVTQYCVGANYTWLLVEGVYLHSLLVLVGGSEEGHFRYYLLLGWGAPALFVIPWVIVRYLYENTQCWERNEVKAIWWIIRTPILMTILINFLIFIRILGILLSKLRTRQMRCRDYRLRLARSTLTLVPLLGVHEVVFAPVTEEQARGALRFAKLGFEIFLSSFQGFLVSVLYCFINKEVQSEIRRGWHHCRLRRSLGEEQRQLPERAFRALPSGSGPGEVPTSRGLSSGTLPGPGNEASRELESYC
# Assay: In vitro potency (CRE luciferase; whole cells), BHK CRE luc2P hGIPR
# Format: cell-based
# Conditions: 0.2% HSA
# Description: In Vitro Potency (CRE Luciferase; Whole Cells)
# The in vitro potency is the measure of human GIP, GLP-1 or glucagon receptor activation, respectively, in a whole cell assay.
# In vitro potency was determined by measuring the response of the human GIP, GLP-1 or glucagon receptor in a reporter gene assay in individual cell lines. […] When the respective receptor is activated it results in the production of cAMP, which in turn results in the luciferase protein being expressed. When assay incubation is completed the luciferase substrate (luciferin) is added and the enzyme converts luciferin to oxyluciferin to produce bioluminescence. The luminescence is measured as the readout for the assay.
# The cells were derived from a clone containing the CRE luciferase element and were established by further transfection with the respective receptor to obtain the current clone.
# The cells were cultured at 5% CO2 in Cell Culture Medium. They were aliquoted and stored in liquid nitrogen. The cells were kept in passage and were seeded out the day before each assay.
# The Assay Buffer consisted of 1% ovalbumin and 0.1% Pluronic F-68 in Assay Medium with the addition of human serum albumin at twice the indicated concentrations.
# 1) Cells were plated at 5000 cells/well and incubated overnight.
# 2) Cells were washed three times in PBS.
# 3) Assay Medium (50 μl aliquot) with or without serum albumin was added to each well in the assay plate.
# 4) Stocks of the test compounds and reference compounds were diluted to a concentration of 0.2 μM in Assay Buffer. […] 8) The cells were washed three times with PBS plus some liquid in each well. 9) A 100 μl aliquot of steadylite plus reagent was added to each well of the assay plate (reagent was light sensitive). 10) Each assay plate was covered with aluminum foil to protect it from light and shaken for 30 min at room temperature. 11) Each assay plate was read in a microtiter plate reader. Calculations and Results
# The data from the microtiter plate reader was transferred to GraphPad Prism software. The software performs a non-linear regression (log(agonist) vs response).
# A minimum of two replicates was measured for each sample. The reported values are averages of the replicates.
row,EC50 [nM],SMILES
1,0.0499,"CCCC[C@H](NC(=O)[C@H](C)NC(=O)[C@@H](NC(=O)[C@H](CO)NC(=O)[C@H](Cc1ccc(O)cc1)NC(=O)[C@H](CC(=O)O)NC(=O)[C@H](CO)NC(=O)[C@@H](NC(=O)[C@H](Cc1ccccc1)NC(=O)[C@@H](NC(=O)CNC(=O)[C@H](CCC(=O)O)NC(=O)C(C)(C)NC(=O)[C@@H](N)Cc1ccc(O)cc1)[C@@H](C)O)[C@@H](C)CC)[C@@H](C)CC)C(=O)N[C@@H](CC(=O)O)C(=O)N[C@@H](CCCCN)C(=O)N[C@H](C(=O)N[C@@H](Cc1c[nH]cn1)C(=O)N[C@@H](CCC(N)=O)C(=O)N[C@@H](CCC(N)=O)C(=O)N[C@@H](CC(=O)O)C(=O)N[C@@H](Cc1ccccc1)C(=O)N[C@H](C(=O)N[C@@H](CCCCNC(=O)CC[C@H](NC(=O)CC[C@H](NC(=O)CC[C@H](NC(=O)CCCCCCCCCCCCCCCCC(=O)O)C(=O)O)C(=O)O)C(=O)O)C(=O)N[C@@H](Cc1c[nH]c2ccccc12)C(=O)N[C@@H](CC(C)C)C(=O)N[C@@H](CC(C)C)C(=O)N[C@@H](C)C(=O)N[C@@H](CCC(N)=O)C(=O)N[C@@H](CCCCN)C(=O)NCC(=O)O)C(C)C)[C@@H](C)CC [Compound 2, N{Epsilon-24}-[(4S)-4-carboxy-4-[[(4S)-4-carboxy-4-[[(4S)-4-carboxy-4-(17-carboxyheptadecanoylamino)butanoyl]amino]butanoyl]amino]butanoyl]-[Aib2,Nle14,Lys24]-hGIP(1-31)] (H-Y[Aib]EGTFISDYSIA[Nle]DKIHQQDFVK([γGlu-γGlu-γGlu-C18 diacid])WLLAQKG-OH)"
2,0.0629,"CCCC[C@H](NC(=O)[C@H](C)NC(=O)[C@@H](NC(=O)[C@H](CO)NC(=O)[C@H](Cc1ccc(O)cc1)NC(=O)[C@H](CC(=O)O)NC(=O)[C@H](CO)NC(=O)[C@@H](NC(=O)[C@H](Cc1ccccc1)NC(=O)[C@@H](NC(=O)CNC(=O)[C@H](CCC(=O)O)NC(=O)C(C)(C)NC(=O)[C@@H](N)Cc1ccc(O)cc1)[C@@H](C)O)[C@@H](C)CC)[C@@H](C)CC)C(=O)N[C@@H](CC(=O)O)C(=O)N[C@@H](CCCCN)C(=O)N[C@H](C(=O)N[C@@H](CCCNC(=N)N)C(=O)N[C@@H](CCC(N)=O)C(=O)N[C@@H](CCC(=O)O)C(=O)N[C@@H](CC(=O)O)C(=O)N[C@@H](Cc1ccccc1)C(=O)N[C@H](C(=O)N[C@@H](CCCCNC(=O)CC[C@H](NC(=O)CC[C@H](NC(=O)CC[C@H](NC(=O)CCCCCCCCCCCCCCCCC(=O)O)C(=O)O)C(=O)O)C(=O)O)C(=O)N[C@@H](Cc1c[nH]c2ccccc12)C(=O)N[C@@H](CC(C)C)C(=O)N[C@@H](CC(C)C)C(=O)N[C@@H](C)C(=O)N[C@@H](CCC(N)=O)C(=O)N[C@@H](CCCCN)C(=O)NCC(=O)O)C(C)C)[C@@H](C)CC [Compound 9, N{Epsilon-24}-[(4S)-4-carboxy-4-[[(4S)-4-carboxy-4-[[(4S)-4-carboxy-4-(17-carboxyheptadecanoylamino)butanoyl]amino]butanoyl]amino]butanoyl]-[Aib2,Nle14,Arg18,Glu20,Lys24]-hGIP(1-31)] (H-Y[Aib]EGTFISDYSIA[Nle]DKIRQEDFVK([γGlu-γGlu-γGlu-C18 diacid])WLLAQKG-OH; N-terminus and C-terminus assumed)"
3,0.0725,"CCCC[C@H](NC(=O)[C@H](C)NC(=O)[C@@H](NC(=O)[C@H](CO)NC(=O)[C@H](Cc1ccc(O)cc1)NC(=O)[C@H](CC(=O)O)NC(=O)[C@H](CO)NC(=O)[C@@H](NC(=O)[C@H](Cc1ccccc1)NC(=O)[C@@H](NC(=O)CNC(=O)[C@H](CCC(=O)O)NC(=O)C(C)(C)NC(=O)[C@@H](N)Cc1ccc(O)cc1)[C@@H](C)O)[C@@H](C)CC)[C@@H](C)CC)C(=O)N[C@@H](CC(=O)O)C(=O)N[C@@H](C)C(=O)N[C@H](C(=O)N[C@@H](CCCNC(=N)N)C(=O)N[C@@H](CCC(N)=O)C(=O)N[C@@H](CCC(N)=O)C(=O)N[C@@H](CC(=O)O)C(=O)N[C@@H](Cc1ccccc1)C(=O)N[C@H](C(=O)N[C@@H](CCCCNC(=O)CC[C@H](NC(=O)CC[C@H](NC(=O)CC[C@H](NC(=O)CCCCCCCCCCCCCCCCC(=O)O)C(=O)O)C(=O)O)C(=O)O)C(=O)N[C@@H](Cc1c[nH]c2ccccc12)C(=O)N[C@@H](CC(C)C)C(=O)N[C@@H](CC(C)C)C(=O)N[C@@H](C)C(=O)N[C@@H](CCC(N)=O)C(=O)N[C@@H](CCCCN)C(=O)NCC(=O)O)C(C)C)[C@@H](C)CC [Compound 13, N{Epsilon-24}-[(4S)-4-carboxy-4-[[(4S)-4-carboxy-4-[[(4S)-4-carboxy-4-(17-carboxyheptadecanoylamino)butanoyl]amino]butanoyl]amino]butanoyl]-[Aib2,Nle14,Ala16,Arg18,Lys24]-hGIP(1-31)] (H-Y[Aib]EGTFISDYSIA[Nle]DAIRQQDFVK([γGlu-γGlu-γGlu-C18 diacid])WLLAQKG-OH; N-terminus and C-terminus assumed)"
4,0.025,"CCCC[C@H](NC(=O)[C@H](C)NC(=O)[C@@H](NC(=O)[C@H](CO)NC(=O)[C@H](Cc1ccc(O)cc1)NC(=O)[C@H](CC(=O)O)NC(=O)[C@H](CO)NC(=O)[C@@H](NC(=O)[C@H](Cc1ccccc1)NC(=O)[C@@H](NC(=O)CNC(=O)[C@H](CCC(=O)O)NC(=O)[C@H](C)NC(=O)[C@@H](Cc1ccc(O)cc1)NC(C)=O)[C@@H](C)O)[C@@H](C)CC)[C@@H](C)CC)C(=O)N[C@@H](CC(=O)O)C(=O)N[C@@H](CCCCN)C(=O)N[C@H](C(=O)N[C@@H](CCCNC(=N)N)C(=O)N[C@@H](CCC(N)=O)C(=O)N[C@@H](CCC(=O)O)C(=O)N[C@@H](CC(=O)O)C(=O)N[C@@H](Cc1ccccc1)C(=O)N[C@H](C(=O)N[C@@H](CCCCNC(=O)COCCOCCNC(=O)COCCOCCNC(=O)CC[C@H](NC(=O)CCCCCCCCCCCCCCCCC(=O)O)C(=O)O)C(=O)N[C@@H](Cc1c[nH]c2ccccc12)C(=O)N[C@@H](CC(C)C)C(=O)N[C@@H](CC(C)C)C(=O)N[C@@H](C)C(=O)N[C@@H](CCC(N)=O)C(=O)N[C@@H](CCCCN)C(=O)NCC(=O)O)C(C)C)[C@@H](C)CC [Compound 16, N{1}-acetyl,N{Epsilon-24}-[2-[2-[2-[[2-[2-[2-[[(4S)-4-carboxy-4-(17-carboxy-heptadecanoylamino)butanoyl]amino]ethoxy]ethoxy]acetyl]amino]ethoxy]ethoxy]acetyl]-[D-Tyr1,Nle14,Arg18,Glu20,Lys24]-hGIP(1-31)]"
5,0.546,"CCCC[C@H](NC(=O)[C@H](C)NC(=O)[C@@H](NC(=O)[C@H](CO)NC(=O)[C@H](Cc1ccc(O)cc1)NC(=O)[C@H](CC(=O)O)NC(=O)[C@H](CO)NC(=O)[C@@H](NC(=O)[C@H](Cc1ccccc1)NC(=O)[C@@H](NC(=O)CNC(=O)[C@H](CCC(=O)O)NC(=O)[C@H](C)NC(=O)[C@H](Cc1ccc(O)cc1)NC(C)=O)[C@@H](C)O)[C@@H](C)CC)[C@@H](C)CC)C(=O)N[C@@H](CC(=O)O)C(=O)N[C@@H](CCCCN)C(=O)N[C@H](C(=O)N[C@@H](CCCNC(=N)N)C(=O)N[C@@H](CCC(N)=O)C(=O)N[C@@H](CCC(N)=O)C(=O)N[C@@H](CC(=O)O)C(=O)N[C@@H](Cc1ccccc1)C(=O)N[C@H](C(=O)N[C@@H](CCCCNC(=O)CC[C@H](NC(=O)CC[C@H](NC(=O)CC[C@H](NC(=O)CCCCCCCCCCCCCCCCC(=O)O)C(=O)O)C(=O)O)C(=O)O)C(=O)N[C@@H](Cc1c[nH]c2ccccc12)C(=O)N[C@@H](CC(C)C)C(=O)N[C@@H](CC(C)C)C(=O)N[C@@H](C)C(=O)N[C@@H](CCC(N)=O)C(=O)N[C@@H](CCCCN)C(=O)NCC(=O)O)C(C)C)[C@@H](C)CC [Compound 18, N{1}-acetyl,N{Epsilon-24}-[(4S)-4-carboxy-4-[[(4S)-4-carboxy-4-[[(4S)-4-carboxy-4-(17-carboxyheptadecanoylamino)butanoyl]amino]butanoyl]amino]butanoyl]-[Nle14,Arg18,Lys24]-hGIP(1-31)]"
